Measured values published in publication PMC7886321, “Deciphering the LRRK code: LRRK1 and LRRK2 phosphorylate distinct Rab proteins and are regulated by diverse mechanisms” (Biochemical Journal, 2021).

Assays:
LRRK1 = target: T1, LRRK1 (Homo sapiens, UniProt Q38SD2); test: in vitro kinase assay, Rab7A Ser72 phosphorylation by immunoblot, […] ATP; type: biochemical
T1 construct: recombinant LRRK1, residues 28 to 2015

LRRK2 = target: T2, LRRK2 (Homo sapiens, UniProt Q5S007); test: HEK293 overexpression, pRab10 Thr73 and pSer935 LRRK2 immunoblot; type: cell-based
T2 construct: wild type LRRK2 overexpressed in HEK293 cells
T2 sequence (Q5S007 whole entry): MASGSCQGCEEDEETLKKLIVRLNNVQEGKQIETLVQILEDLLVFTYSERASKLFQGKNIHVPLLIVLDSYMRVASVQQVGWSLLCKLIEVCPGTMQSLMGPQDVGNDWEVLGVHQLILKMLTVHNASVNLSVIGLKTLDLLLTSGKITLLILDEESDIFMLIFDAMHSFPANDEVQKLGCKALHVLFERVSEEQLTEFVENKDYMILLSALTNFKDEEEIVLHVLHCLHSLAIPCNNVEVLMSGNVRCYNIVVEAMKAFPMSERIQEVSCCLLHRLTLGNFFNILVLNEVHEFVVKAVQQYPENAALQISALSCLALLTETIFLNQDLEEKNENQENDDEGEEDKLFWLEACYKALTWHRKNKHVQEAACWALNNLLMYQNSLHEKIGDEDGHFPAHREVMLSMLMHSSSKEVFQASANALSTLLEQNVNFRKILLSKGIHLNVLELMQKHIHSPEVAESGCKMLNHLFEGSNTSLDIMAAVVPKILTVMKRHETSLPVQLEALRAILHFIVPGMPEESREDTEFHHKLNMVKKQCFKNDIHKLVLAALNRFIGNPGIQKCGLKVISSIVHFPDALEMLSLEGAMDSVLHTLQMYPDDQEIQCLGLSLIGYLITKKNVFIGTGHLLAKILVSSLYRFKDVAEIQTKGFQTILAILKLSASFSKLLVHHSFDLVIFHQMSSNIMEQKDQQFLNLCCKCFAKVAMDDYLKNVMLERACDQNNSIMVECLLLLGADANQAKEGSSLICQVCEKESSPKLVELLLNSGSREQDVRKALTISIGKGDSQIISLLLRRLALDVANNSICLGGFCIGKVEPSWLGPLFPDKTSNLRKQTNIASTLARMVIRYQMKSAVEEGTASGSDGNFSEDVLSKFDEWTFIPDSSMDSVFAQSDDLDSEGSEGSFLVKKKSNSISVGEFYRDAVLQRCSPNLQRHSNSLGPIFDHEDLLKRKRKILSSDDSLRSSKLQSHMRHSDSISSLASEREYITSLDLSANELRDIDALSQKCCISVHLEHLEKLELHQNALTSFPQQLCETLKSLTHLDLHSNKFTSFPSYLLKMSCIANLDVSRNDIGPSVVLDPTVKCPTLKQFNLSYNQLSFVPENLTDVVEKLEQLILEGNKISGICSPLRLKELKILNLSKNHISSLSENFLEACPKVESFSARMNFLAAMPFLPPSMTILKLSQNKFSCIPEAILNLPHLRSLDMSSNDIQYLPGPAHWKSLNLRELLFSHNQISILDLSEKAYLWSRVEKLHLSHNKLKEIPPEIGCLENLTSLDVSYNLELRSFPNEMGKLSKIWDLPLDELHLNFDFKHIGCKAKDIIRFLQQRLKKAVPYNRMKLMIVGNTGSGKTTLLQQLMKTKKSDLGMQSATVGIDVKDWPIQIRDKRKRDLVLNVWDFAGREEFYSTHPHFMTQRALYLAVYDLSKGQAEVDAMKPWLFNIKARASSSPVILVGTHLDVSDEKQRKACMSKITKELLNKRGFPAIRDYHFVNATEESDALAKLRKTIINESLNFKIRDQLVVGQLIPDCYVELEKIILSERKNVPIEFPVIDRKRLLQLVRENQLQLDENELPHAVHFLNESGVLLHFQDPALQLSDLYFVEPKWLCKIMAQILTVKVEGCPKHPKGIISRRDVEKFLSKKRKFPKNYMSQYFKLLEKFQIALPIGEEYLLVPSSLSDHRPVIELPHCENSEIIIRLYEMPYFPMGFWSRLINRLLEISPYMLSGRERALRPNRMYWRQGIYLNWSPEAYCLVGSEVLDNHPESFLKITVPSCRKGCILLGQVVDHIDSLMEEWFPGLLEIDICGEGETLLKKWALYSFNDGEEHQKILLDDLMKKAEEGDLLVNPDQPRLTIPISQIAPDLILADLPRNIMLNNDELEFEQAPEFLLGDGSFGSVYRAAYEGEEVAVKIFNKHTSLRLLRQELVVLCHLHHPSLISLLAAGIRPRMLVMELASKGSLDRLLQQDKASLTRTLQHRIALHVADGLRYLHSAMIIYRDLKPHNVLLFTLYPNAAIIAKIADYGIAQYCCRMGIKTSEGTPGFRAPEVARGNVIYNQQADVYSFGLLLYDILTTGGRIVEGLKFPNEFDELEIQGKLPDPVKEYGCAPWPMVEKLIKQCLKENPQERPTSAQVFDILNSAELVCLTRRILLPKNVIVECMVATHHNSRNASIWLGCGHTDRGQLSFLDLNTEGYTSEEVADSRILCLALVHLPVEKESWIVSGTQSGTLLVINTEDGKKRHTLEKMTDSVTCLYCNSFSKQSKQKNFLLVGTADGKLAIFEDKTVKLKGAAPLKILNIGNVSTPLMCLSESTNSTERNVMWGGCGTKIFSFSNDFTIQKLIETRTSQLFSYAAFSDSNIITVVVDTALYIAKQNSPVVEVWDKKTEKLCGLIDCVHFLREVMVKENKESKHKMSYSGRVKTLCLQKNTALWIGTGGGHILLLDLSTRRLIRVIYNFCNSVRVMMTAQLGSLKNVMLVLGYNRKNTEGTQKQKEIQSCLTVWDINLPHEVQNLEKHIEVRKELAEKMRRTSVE

T1 sequence (Q38SD2 28-2015): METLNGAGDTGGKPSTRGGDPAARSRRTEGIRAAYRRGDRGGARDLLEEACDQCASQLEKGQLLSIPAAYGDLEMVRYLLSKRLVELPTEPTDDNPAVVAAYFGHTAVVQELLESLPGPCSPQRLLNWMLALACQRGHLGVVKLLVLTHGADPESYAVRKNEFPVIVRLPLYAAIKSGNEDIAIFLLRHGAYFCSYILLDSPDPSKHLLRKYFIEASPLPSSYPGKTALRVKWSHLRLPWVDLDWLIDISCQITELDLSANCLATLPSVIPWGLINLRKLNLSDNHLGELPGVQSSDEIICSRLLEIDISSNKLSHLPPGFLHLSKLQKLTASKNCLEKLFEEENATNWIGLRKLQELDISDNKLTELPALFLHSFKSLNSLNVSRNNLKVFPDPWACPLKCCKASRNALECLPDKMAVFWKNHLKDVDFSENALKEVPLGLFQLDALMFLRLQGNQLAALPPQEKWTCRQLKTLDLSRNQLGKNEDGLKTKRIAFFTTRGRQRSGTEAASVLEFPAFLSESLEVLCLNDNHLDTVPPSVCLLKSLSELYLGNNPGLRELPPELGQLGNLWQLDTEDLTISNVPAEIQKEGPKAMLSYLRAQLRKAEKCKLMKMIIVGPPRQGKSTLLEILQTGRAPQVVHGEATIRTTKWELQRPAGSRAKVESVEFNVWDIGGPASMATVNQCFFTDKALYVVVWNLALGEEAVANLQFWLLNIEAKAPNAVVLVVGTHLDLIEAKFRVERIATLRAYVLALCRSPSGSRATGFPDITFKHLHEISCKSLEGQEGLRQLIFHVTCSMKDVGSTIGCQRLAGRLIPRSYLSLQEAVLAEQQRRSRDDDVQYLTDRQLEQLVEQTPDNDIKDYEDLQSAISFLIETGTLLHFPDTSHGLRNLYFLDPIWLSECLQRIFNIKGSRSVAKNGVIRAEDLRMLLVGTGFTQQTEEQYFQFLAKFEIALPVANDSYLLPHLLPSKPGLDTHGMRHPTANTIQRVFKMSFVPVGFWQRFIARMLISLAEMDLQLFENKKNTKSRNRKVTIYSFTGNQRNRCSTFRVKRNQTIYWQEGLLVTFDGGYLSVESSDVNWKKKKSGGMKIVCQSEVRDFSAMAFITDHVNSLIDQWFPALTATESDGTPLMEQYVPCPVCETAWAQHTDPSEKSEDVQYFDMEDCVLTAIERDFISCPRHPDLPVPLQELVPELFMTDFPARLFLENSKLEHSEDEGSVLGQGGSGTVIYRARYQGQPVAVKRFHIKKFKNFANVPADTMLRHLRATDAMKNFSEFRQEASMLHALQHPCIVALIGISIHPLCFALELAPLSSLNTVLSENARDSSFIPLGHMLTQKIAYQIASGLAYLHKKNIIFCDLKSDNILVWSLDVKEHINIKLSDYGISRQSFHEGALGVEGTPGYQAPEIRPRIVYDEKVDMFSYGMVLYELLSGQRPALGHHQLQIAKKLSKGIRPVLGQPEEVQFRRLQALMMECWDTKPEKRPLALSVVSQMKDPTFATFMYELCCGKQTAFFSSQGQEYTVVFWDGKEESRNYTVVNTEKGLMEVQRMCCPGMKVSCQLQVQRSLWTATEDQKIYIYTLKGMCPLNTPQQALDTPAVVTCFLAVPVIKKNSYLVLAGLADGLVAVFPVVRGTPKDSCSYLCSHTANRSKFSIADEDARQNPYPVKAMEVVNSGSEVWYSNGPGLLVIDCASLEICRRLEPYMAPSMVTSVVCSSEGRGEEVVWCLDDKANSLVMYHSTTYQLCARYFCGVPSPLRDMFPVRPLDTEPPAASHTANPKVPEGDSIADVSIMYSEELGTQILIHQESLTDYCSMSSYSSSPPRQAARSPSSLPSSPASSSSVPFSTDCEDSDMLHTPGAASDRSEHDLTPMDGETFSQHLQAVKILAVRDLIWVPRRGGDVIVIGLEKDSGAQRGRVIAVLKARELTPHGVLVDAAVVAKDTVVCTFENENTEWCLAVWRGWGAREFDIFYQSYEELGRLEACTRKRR

| Compound | IC50 (LRRK1) [nM] | HEK293 overexpression, pRab10 Thr73 and pSer935 LRRK2 immunoblot (LRRK2) |
| --- | --- | --- |
| Cc1ccc(C(=O)Nc2ccc(CN3CCN(C)CC3)c(C(F)(F)F)c2)cc1C#Cc1cnc2[nH]ncc2c1 [GZD-824] | ~20 |  |
| O=C(Nc1cccnc1)c1cc(-c2ccnc(F)c2)ccc1OCc1ccccc1 [GSK2578215A] |  | All inhibitors ablated LRRK2-mediated phosphorylation of Rab10 at Thr73 and LRRK2 at Ser935 in parallel experiments. |
| COc1cc(C(=O)N2CCC(N3CCN(C)CC3)CC2)ccc1Nc1ncc2c(n1)N(C)c1ccccc1C(=O)N2C [LRRK2-IN1] |  | All inhibitors ablated LRRK2-mediated phosphorylation of Rab10 at Thr73 and LRRK2 at Ser935 in parallel experiments. |
